According to ChEMBL document CHEMBL1127828, “The discovery of an unusually selective and novel cocaine analog: difluoropine. Synthesis and inhibition of binding at cocaine recognition sites” (J Med Chem, 1994):

What follows are compounds tested against Sodium-dependent serotonin transporter (Homo sapiens, UniProt P31645) (assay: Binding affinity of [3H]citalopram for serotonin transporter in monkey).
Design: species or system Cercopithecidae

Sequence of Sodium-dependent serotonin transporter (P31645 whole entry): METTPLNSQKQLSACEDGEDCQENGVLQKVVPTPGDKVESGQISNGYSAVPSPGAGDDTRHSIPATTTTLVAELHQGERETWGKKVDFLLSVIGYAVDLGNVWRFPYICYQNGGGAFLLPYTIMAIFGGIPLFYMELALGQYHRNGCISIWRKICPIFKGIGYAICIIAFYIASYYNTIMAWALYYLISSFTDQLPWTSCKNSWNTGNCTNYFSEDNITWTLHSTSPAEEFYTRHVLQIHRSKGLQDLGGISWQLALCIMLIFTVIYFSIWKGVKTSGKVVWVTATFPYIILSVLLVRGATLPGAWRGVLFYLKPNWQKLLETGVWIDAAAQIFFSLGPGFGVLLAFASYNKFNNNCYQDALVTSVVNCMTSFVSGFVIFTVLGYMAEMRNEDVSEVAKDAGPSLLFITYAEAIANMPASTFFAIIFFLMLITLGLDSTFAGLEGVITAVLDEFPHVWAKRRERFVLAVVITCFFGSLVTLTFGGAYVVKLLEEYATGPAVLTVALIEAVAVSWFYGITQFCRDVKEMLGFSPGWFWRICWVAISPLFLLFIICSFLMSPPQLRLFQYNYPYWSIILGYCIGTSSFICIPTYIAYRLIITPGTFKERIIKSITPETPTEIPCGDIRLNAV

Compound | IC50 [µM]
COC(=O)C1C2CC[C@H](C[C@@H]1c1ccc(I)cc1)N2C (some centres undefined) | 0.00253
COC(=O)[C@@H]1C2CCC(C[C@@H]1OC(c1ccc(F)cc1)c1ccc(F)cc1)N2C (some centres undefined) | 3.53
COC(=O)[C@@H]1[C@H]2CCC(C[C@H]1OC(c1ccc(F)cc1)c1ccc(F)cc1)N2C | 1.83
COC(=O)C1C2CC[C@H](C[C@@H]1OC(c1ccc(F)cc1)c1ccc(F)cc1)N2C (stereo in doubt; R-7) | 5.5
COC(=O)C1C2CC[C@H](C[C@H]1OC(c1ccc(F)cc1)c1ccc(F)cc1)N2C (stereo in doubt; R-8) | 1.98
COC(=O)C1C2CC[C@H](C[C@@H]1OC(c1ccc(F)cc1)c1ccc(F)cc1)N2C (stereo in doubt; R-9) | 1.46
COC(=O)C1C2CC[C@H](C[C@H]1OC(c1ccc(F)cc1)c1ccc(F)cc1)N2C (stereo in doubt; R-10) | 9.15
COC(=O)C1C2CC[C@H](C[C@H]1OC(c1ccc(F)cc1)c1ccc(F)cc1)N2C (stereo in doubt; S-7) | 4.09
COC(=O)C1C2CC[C@H](C[C@H]1OC(c1ccc(F)cc1)c1ccc(F)cc1)N2C (stereo in doubt; S-10) | 4.93
